In patent publication US8980911B2, “Heterocyclic compounds as protein kinase inhibitors” (Daiichi Sankyo Company, Limited, priority 2011, dated 2015) one finds IC50 data, which are given here for 6 molecules.

Holding throughout (format): biochemical
Experiment [1] concerns the target T1, JAK2 (Homo sapiens, UniProt O60674).
T1 construct: All enzymes only contain the catalytic domain; His (N); purchased Carna Bioscience, Inc; host or cells: baculovirus expression system
Kind of experiment: In vitro enzyme assay (cell-free HTRF kinase assay), JAK2. To be noted: catalytic domain, His-tag; ATP 10 μM, SRCtide 25 nM, reaction 30 min. Summed up: (§1)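 Catalytic-domain human kinases (baculovirus-expressed; JAK1 GST-tagged aa 850-1154, JAK2/JAK3 His-tagged) reacted with biotin-SRCtide and ATP in HEPES pH 7.5, MgCl2, DTT buffer, 1% DMSO, at room temperature. EDTA stop (10 mM final), then ULight-streptavidin/Eu-anti-phosphotyrosine overnight at 4 °C; HTRF 665/615 ratio gave IC50.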

The target of experiment [2] is T2, JAK3 (Homo sapiens, UniProt P52333).
T2 construct: All enzymes only contain the catalytic domain; His (N); purchased Carna Bioscience, Inc; host or cells: baculovirus expression system
As to the kind of experiment: In vitro enzyme assay (cell-free HTRF kinase assay), JAK3. To be noted: catalytic domain, His-tag; ATP 3 μM, SRCtide 100 nM, reaction 30 min. Summed up: as §1
In general terms: Time-resolved FRET reads energy transfer from a long-lived donor to a nearby acceptor.

The target of experiment [3] is T3, JAK1 (Homo sapiens, UniProt P23458).
T3 construct: JAK1 (aa 850-1154) and TYK2 (aa 871-1187) are expressed with an N-terminally fused GST-tag; GST (N); purchased Carna Bioscience, Inc; host or cells: baculovirus expression system
Kind of experiment: In vitro enzyme assay (cell-free HTRF kinase assay), JAK1. The following applies: catalytic domain aa 850-1154, GST-tag; ATP 60 μM, SRCtide 400 nM, reaction 120 min. Summed up:
as §1

T2 sequence (P52333 822-1111 limits assumed): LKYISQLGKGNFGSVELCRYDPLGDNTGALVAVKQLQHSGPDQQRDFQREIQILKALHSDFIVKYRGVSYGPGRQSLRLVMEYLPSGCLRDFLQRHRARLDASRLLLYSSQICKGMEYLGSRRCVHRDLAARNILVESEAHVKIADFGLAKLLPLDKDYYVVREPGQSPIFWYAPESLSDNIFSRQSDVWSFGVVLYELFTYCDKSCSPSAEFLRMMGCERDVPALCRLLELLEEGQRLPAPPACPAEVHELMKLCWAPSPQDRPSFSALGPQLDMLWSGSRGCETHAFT
T1 sequence (O60674 849-1124 limits assumed): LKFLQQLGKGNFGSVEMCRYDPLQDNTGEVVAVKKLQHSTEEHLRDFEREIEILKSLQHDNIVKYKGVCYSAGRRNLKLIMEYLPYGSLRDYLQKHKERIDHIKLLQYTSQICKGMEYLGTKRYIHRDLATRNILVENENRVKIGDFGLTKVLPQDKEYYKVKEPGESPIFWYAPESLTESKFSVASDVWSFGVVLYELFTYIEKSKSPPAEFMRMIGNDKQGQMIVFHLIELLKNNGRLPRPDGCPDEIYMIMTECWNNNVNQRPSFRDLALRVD
T3 sequence (P23458 850-1154): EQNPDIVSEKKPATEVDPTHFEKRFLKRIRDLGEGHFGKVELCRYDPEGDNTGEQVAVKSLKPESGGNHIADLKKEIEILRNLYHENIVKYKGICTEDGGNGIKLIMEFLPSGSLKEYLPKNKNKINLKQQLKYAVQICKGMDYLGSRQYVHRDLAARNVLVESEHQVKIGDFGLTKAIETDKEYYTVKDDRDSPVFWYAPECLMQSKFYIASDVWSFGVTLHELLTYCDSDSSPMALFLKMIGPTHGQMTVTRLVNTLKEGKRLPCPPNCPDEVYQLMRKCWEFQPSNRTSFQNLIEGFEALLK

The IC50 is the concentration at which inhibition is half-maximal. High values mean lower potency, low ones higher potency. As to `O=C(Nc1cc(Cl)c(C(=O)n2ccc3c(NC(=O)C4CC4)nccc32)c(Cl)c1)NC1CC1` [Compound No. 113, N-(1-{2,6-Dichloro-4-[(cyclopropylcarbamoyl)amino]benzoyl}-1H-pyrrolo[3,2-c]pyridin-4-yl)cyclopropanecarboxamide], the IC50 in experiment [1] is less than 0.5 µM; in experiment [2], less than 0.5 µM; in experiment [3], less than 1 µM.
`O=C(Nc1nccc2c1ccn2C(=O)c1c(Cl)cc(CNCCCN2CCOCC2)cc1Cl)C1CC1` [Compound No. 166, N-{1-[2,6-Dichloro-4-({[3-(morpholin-4-yl)propyl]amino}methyl)benzoyl]-1H-pyrrolo[3,2-c]pyridin-4-yl}cyclopropanecarboxamide]: the results for the IC50 in experiment [1], in experiment [2] and in experiment [3] were less than 1 µM, less than 0.5 µM and less than 0.5 µM, respectively.
Take `O=C(Nc1cc2c(ccn2C(=O)c2c(Cl)cccc2Cl)cn1)C1CC1` [Compound No. 120, N-[1-(2,6-Dichlorobenzoyl)-1H-pyrrolo[3,2-c]pyridin-6-yl]cyclopropanecarboxamide]: the figures for the IC50 in experiment [1], in experiment [2] and in experiment [3] were less than 0.05 µM, less than 0.05 µM and less than 0.1 µM, respectively.
Regarding `NCCNC(=O)c1cc(Cl)c(C(=O)n2ccc3c(NC(=O)C4CC4)nccc32)c(Cl)c1` [Compound No. 127, N-(2-Aminoethyl)-3,5-dichloro-4-({4-[(cyclopropylcarbonyl)amino]-1H-pyrrolo[3,2-c]pyridin-1-yl}carbonyl)benzamide], the IC50 in experiment [1] is less than 0.1 µM; in experiment [2], less than 0.05 µM; in experiment [3], less than 0.5 µM.
With `O=C(c1c(Cl)cccc1Cl)c1c[nH]c2cnc(NC(=O)C3CC3)cc12` [Compound No. 18, N-[3-(2,6-Dichlorobenzoyl)-1H-pyrrolo[2,3-c]pyridin-5-yl]cyclopropanecarboxamide], the IC50 in experiment [1] is less than 0.1 µM; in experiment [2] it was less than 1 µM; in experiment [3], less than 1 µM.
In the case of `CN(C)CCNC(=O)c1cc(Cl)c(C(=O)c2c[nH]c3c(NC(=O)C4CC4)nccc23)c(Cl)c1` [Compound No. 33, 3,5-Dichloro-4-({7-[(cyclopropylcarbonyl)amino]-1H-pyrrolo[2,3-c]pyridin-3-yl}carbonyl)-N-[2-(dimethylamino)ethyl]benzamide], the IC50 in experiment [1], in experiment [2] and in experiment [3] was less than 0.1 µM each time.
